Assay results taken from patent US5356911A, “Substituted biphenylpyridones” (Bayer Aktiengesellschaft, priority 1991, dated 1994).
pIC50, pKi: −log10 of the molar value. Structures can show the parent of a compound that is named as a salt.

Each compound was assayed on contraction of the isolated rabbit aorta induced by angiotensin II (assay: Inhibition of the angiotensin II-induced vascular contraction of isolated rabbit aorta rings in vitro). Details: Oryctolagus cuniculus; isolated aorta rings of rabbits in vitro; based on 3rd = sub-maximal agonist concentration; read-out: IC50 for contractions induced by AII.
Assay type: cell-based
Experimental: Investigation of the Inhibition of the Contraction Induced by Agonists
Rabbits of both sexes are stunned by a blow to the neck and bled out, or in some cases anaesthetised with Nembutal (about 60-80 mg/kg i.v.) and sacrificed by opening the thorax. The thorax aorta is removed, freed of adhering connective tissue, divided into 1.5 mm wide ring segments and individually transferred under an initial loading of about 3.5 g to 10 ml organ baths containing 95% O2, 5% CO2 -aerated Krebs-Henseleit nutrient solution adjusted to 37° C. and of the following composition: 119 mmol/l of NaCl; 2.5 mmol/l of CaCl2 ×2H2 O; 1.2 mmol/l of KH2 PO4; 10 mmol/l of glucose; 4.8 mmol/l of KCl; 1.4 mmol/l of MgSO4 ×7 H2 O and 25 mmol/l of NaHCO3.
The contractions are detected isometrically by Statham UC2 cells by means of bridge amplifiers (ifd Mulheim or DSM Aalen) and digitalised and analysed by means of an A/D converter (System 570, Keithley Munich). The agonist dose-response curves (DRC) are carried out hourly. With each DRC, 3 or 4 individual concentrations are applied to the baths at 4 min intervals. After the end of the DRC and subsequent washing-out cycles (16 times, in each case about 5 sec/min with the abovementioned nutrient solution), a 28-minute resting or incubation phase follows, in the course of which the contractions as a rule reach the starting value again.
The height of the 3rd DRC, in the normal case, is used as a reference quantity for the assessment of the test substance to be investigated in other passages, which is applied to the baths in the following DRCs in increasing dosage in each case at the start of the incubation time. Each aorta ring is in this way stimulated for the whole day, always with the same agonist.
For the calculation of the IC50 (concentration at which the substance to be investigated causes a 50% inhibition), the effect is in each case based on the 3rd=sub-maximal agonist concentration.
rings of rabbits in vitro
IC50 (g/ml) for contractions induced by: AII

pIC50 | Compound
7.47 | CCCc1cc(C(=O)OC)cc(=O)n1Cc1ccc(-c2ccccc2-c2nnn[nH]2)cc1 [LXXVIII]
6.92 | CCCCc1cc(C(=O)O)cc(=O)n1Cc1ccc(-c2ccccc2-c2nnn[nH]2)cc1 [Example XCII, 6-Butyl-4-carboxy-2-oxo-1[(2'-tetrazol-5-yl-biphenyl-4-yl)methyl-1,2-dihydropyridinedisodium salt]
7.89 | CCCCc1cc(CO)cc(=O)n1Cc1ccc(-c2ccccc2-c2nnn[nH]2)cc1 [LIV]
8.43 | CCCCc1cc(C(N)=O)cc(=O)n1Cc1ccc(-c2ccccc2-c2nnn[nH]2)cc1 [XLV]

The remaining lines, values behind:

Compound | pIC50
CCCCc1cccc(=O)n1Cc1ccc(-c2ccccc2-c2nnn[nH]2)cc1 [XXXIII] | 8.14
CCCCc1cc(C(=O)OCc2ccccc2)cc(=O)n1Cc1ccc(-c2ccccc2-c2nnn[nH]2)cc1 [XLIII] | 7.41

What follows are compounds tested against T1, Angiotensin II receptor (Bos taurus, UniProt P25104) (assay: Inhibition of specific binding of 3H-angiotensin II to the angiotensin II receptor on membrane fractions of the adrenal cortex). Details: 3H-angiotensin II (3-5 nM), bovine adrenal cortex membranes, 60 min, room temperature.
T1 construct: Adrenal cortices of cattle (ACC), which have been freshly removed and carefully freed of gland medulla; from tissue; host or cells: bovine adrenal cortex, partially purified membrane fractions
T1 sequence (P25104 1-359): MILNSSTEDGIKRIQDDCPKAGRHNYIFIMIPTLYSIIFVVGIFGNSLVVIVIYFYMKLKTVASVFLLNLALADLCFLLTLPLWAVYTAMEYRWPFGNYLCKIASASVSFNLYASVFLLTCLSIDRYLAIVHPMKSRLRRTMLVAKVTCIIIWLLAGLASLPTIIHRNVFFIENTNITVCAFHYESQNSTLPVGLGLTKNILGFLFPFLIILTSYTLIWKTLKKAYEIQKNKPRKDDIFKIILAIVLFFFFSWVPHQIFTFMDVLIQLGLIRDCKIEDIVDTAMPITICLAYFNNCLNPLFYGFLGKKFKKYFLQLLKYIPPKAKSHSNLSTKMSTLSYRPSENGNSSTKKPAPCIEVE
Design: species or system cattle (bovine)
From the text: Interaction of the Compounds According to the Invention With the Angiotensin II Receptor on Membrane Fractions of the Adrenal Cortex (Cattle)
Adrenal cortices of cattle (ACC), which have been freshly removed and carefully freed of gland medulla, are comminuted in sucrose solution (0.32M) with the aid of an Ultra-Turrax (Janke & Kunkel, Staufen i.B.) to give a coarse membrane homogenate and partially purified in two centrifugation steps to give membrane fractions. The investigations of receptor binding were carried out on partially purified membrane fractions of bovine ACC using radioactive angiotensin II in an assay volume of 0.25 ml, which in detail contains the partially purified membranes (50-80 μg), ^3 H-angiotensin II (3-5 nM), test buffer solution (50 mM tris, pH 7.2, 5 mM MgCl2 and the substances to be investigated. After an incubation time of 60 min at room temperature, the unbound radioactivity of the samples is separated by means of moistened glass fibre filters (Whatman GF/C) and the bound radioactivity is measured spectrophotometrically in a scintillation cocktail after washing the protein with ice-cold buffer solution (50 mM tris/HCl, pH 7.4, 5% PEG 6000). The analysis of the raw data was carried out using computer programs to give Ki and IC50 values (Ki: IC50 values corrected for the radioactivity used; IC50 values: concentration at which the substance to be investigated causes a 50% inhibition of the specific binding of the radioligand).

pKi | Compound
7.82 | CCCCc1cc(COC)cc(=O)n1Cc1ccc(-c2ccccc2-c2nnn[nH]2)cc1 [Example LV]
7.10 | CCCCc1cc(COC)cc(=O)n1Cc1ccc(-c2ccccc2-c2nnn[nH]2)cc1 [LXXXII]
8.05 | CCCc1cc(C(N)=O)cc(=O)n1Cc1ccc(-c2ccccc2-c2nnn[nH]2)cc1 [Example LVI]

Continued, compound first:

Compound | pKi
CCCCc1cc(C(=O)OCC)c(C#N)c(=O)n1Cc1ccc(-c2ccccc2-c2nnn[nH]2)cc1 [XLVII] | 6.66
N#Cc1c(C(=O)O)cc(C2CC2)n(Cc2ccc(-c3ccccc3-c3nnn[nH]3)cc2)c1=O [XCIV] | 7.38
CCc1cc(CC)n(Cc2ccc(-c3ccccc3-c3nnn[nH]3)cc2)c(=O)c1C#N [XXXIV] | < 5.00

The compounds below were run on Angiotensin II-Infused Rat (assay: Blood pressure measurements on the angiotensin II-infused rat). Details: 0.3 mg/kg p.o.; angiotensin II infusion 0.3 μg/kg/min; anaesthetised rats.
Assay type: in vivo, Male Wistar rats
Experimental: Blood Pressure Measurements on the Angiotensin II-Infused Rat
Male Wistar rats (Moellegaard, Copenhagen, Denmark) having a body weight of 300-350 g are anaesthetised with thiopental (100 mg/kg i.p.). After tracheotomy, one catheter is inserted in the femoral artery for blood pressure measurement and one catheter is inserted in the femoral veins for angiotensin II infusion and one catheter for substance administration. After administration of the ganglionic blocker pentolinium (5 mg/kg i.v.), angiotensin II infusion (0.3 μg/kg/min) is started. As soon as the blood pressure values have reached a stable plateau, the test substances are administered either intravenously or orally as a suspension or solution in 0.5% tylose.

Compound | Blood pressure decrease [mm Hg]
6-Butyl-4-methoxycarbonyl-2-oxo-1-{[2'-(N-triphenylmethyl-tetrazol-5-yl)biphenyl-4-yl]methyl}-1,2-dihydropyridine [Example I] | > 50
